Target: T1, human CRF1 receptor (Homo sapiens, UniProt P34998)
T1 construct: expressed in transfected cells; host or cells: CHO cells (membrane fraction)
T1 sequence (P34998 24-415): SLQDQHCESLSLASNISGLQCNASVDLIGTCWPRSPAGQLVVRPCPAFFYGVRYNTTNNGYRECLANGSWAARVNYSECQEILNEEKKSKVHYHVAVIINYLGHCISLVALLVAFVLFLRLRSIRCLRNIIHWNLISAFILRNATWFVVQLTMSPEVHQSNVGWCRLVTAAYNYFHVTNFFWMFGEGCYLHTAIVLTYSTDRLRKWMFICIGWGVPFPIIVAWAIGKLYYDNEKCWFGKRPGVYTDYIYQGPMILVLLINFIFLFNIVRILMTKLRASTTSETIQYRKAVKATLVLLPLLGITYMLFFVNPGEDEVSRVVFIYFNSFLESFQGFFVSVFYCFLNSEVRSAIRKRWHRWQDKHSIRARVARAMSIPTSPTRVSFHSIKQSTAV
Test: Measurement of CRF Binding Inhibitory Rate (receptor binding experiment with 125I-CRF)
Conditions: human CRF1 receptor expressing CHO cellular membrane fraction, 50 pM 125I-CRF, room temperature 1.5 hr, 0.05 nM to 10 μM of compound; read-out: IC50 values (CRF binding inhibition)

FC(F)(F)C(Cl)c1ccc(Cl)c2nc3n(c12)CCCN3c1c(Cl)cc(Cl)cc1Cl (stereo not shown) [Example 412, 9-Chloro-6-(1-chloro-2,2,2-trifluoroethyl)-1-(2,4,6-trichlorophenyl)-1,2,3,4-tetrahydropyrimido[1,2-a]benzimidazole] and C=COC(CC)c1ccc(Cl)c2nc3n(c12)CCCN3c1ccc(Cl)cc1Cl (stereo not shown) [Example 305, 9-Chloro-1-(2,4-dichlorophenyl)-6-[1-(ethenyloxy)propyl]-1,2,3,4-tetrahydropyrimido[1,2-a]benzimidazole] cannot be ordered by IC50: less than 1000 nM for the first, less than 1000 nM for the second.

CCOc1ccc(N2CCCn3c2nc2c(Cl)ccc(C(OC(F)F)=C(F)F)c23)c(C)n1 [Example 286, 9-Chloro-6-[1-(difluoromethoxy)-2,2-difluoroethenyl]-1-(6-ethoxy-2-methylpyridin-3-yl)-1,2,3,4-tetrahydropyrimido[1,2-a]benzimidazole] and CCC(CC)c1ccc(Cl)c2nc3n(c12)CCN3c1ccc(C=O)cc1Cl [Example 16, 3-Chloro-4-[8-chloro-5-(1-ethylpropyl)-2,3-dihydro-1H-imidazo[1,2-a]benzimidazol-1-yl]benzaldehyde] cannot be ordered by IC50: less than 1000 nM for the first, less than 1000 nM for the second.

O=[N+]([O-])c1ccc(Cl)c2nc3n(c12)CCCN3c1ccc(Cl)cc1Cl [Example 99, 9-Chloro-1-(2,4-dichlorophenyl)-6-nitro-1,2,3,4-tetrahydropyrimido[1,2-a]benzimidazole] and OC(c1ccc(Br)c2nc3n(c12)CCCN3c1ccc(Cl)cc1Cl)(C1CC1)C1CC1 [Example 368, [9-Bromo-1-(2,4-dichlorophenyl)-1,2,3,4-tetrahydropyrimido[1,2-a]benzimidazol-6-yl](dicyclopropyl)methanol] cannot be ordered by IC50: less than 1000 nM for the first, less than 1000 nM for the second.

For CCC(CC)c1ccc(Cl)c2nc3n(c12)CCN3c1ccc(Cl)cc1C=O [Example 6, 5-Chloro-2-[8-chloro-5-(1-ethylpropyl)-2,3-dihydro-1H-imidazo[1,2-a]benzimidazol-1-yl]benzaldehyde], the IC50 was less than 1000 nM.

Test system: not given
Test: not given
Conditions: not given

First: CCN(CC)c1cccc2nc3n(c12)CC(CC(=O)OC)N3c1ccc(Cl)cc1Cl (stereo not shown) [Example 72, Methyl [1-(2,4-dichlorophenyl)-5-(diethylamino)-2,3-dihydro-1H-imidazo[1,2-a]benzimidazol-2-yl]acetate]
Second: CCN(CC)c1cccc2nc3n(c12)CC(CC(=O)O)N3c1ccc(Cl)cc1Cl (stereo not shown) [Example 73, [1-(2,4-Dichlorophenyl)-5-(diethylamino)-2,3-dihydro-1H-imidazo[1,2-a]benzimidazol-2-yl]acetic acid]
The melting point of the first is lower: 137 to 138 °C for the first, 249 to 251 °C for the second.

Compared with CCC(O)c1ccc(Cl)c2nc3n(c12)CCCN3c1c(C)cc(Cl)cc1Cl (stereo not shown) [Example 380, 1-[9-Chloro-1-(2,4-dichloro-6-methylphenyl)-1,2,3,4-tetrahydropyrimido[1,2-a]benzimidazol-6-yl]propan-1-ol], CCC(O)c1ccc(Cl)c2nc3n(c12)CCCN3c1ccc(Cl)cc1Cl (single isomer, unassigned; (+)) [Example 439, (+)-1-[9-Chloro-1-(2,4-dichlorophenyl)-1,2,3,4-tetrahydropyrimido[1,2-a]benzimidazol-6-yl]propan-1-ol] is higher in melting point: 210 to 211 °C for the first, 233 to 235 °C for the second.

First: COc1nc(C)c(N2CCCn3c2nc2cccc(C(O)C(F)(F)F)c23)c(C)n1 (stereo not shown) [Example 517, 2,2,2-Trifluoro-1-[1-(2-methoxy-4,6-dimethylpyrimidin-5-yl)-1,2,3,4-tetrahydropyrimido[1,2-a]benzimidazol-6-yl]ethanol]
Second: COc1nc(C)c(N2CCCn3c2nc2c(Br)ccc(C(OC(F)F)C(F)(F)F)c23)c(C)n1 (stereo not shown) [Example 519, 9-Bromo-6-[1-(difluoromethoxy)-2,2,2-trifluoroethyl]-1-(2-methoxy-4,6-dimethylpyrimidin-5-yl)-1,2,3,4-tetrahydropyrimido[1,2-a]benzimidazole]
The melting point of the first is higher: 296 to 299 °C for the first, 211 to 213 °C for the second.

First: OC(c1ccc(Cl)c2nc3n(c12)CCCN3c1ccc(Cl)cc1Cl)(C(F)(F)F)C(F)(F)F [Example 319, 2-[9-Chloro-1-(2,4-dichlorophenyl)-1,2,3,4-tetrahydropyrimido[1,2-a]benzimidazol-6-yl]-1,1,1,3,3,3-hexafluoropropan-2-ol]
Second: O=C1CCCN1c1ccc(Cl)c2nc3n(c12)CCCN3c1ccc(Cl)cc1Cl [Example 195, 1-[9-Chloro-1-(2,4-dichlorophenyl)-1,2,3,4-tetrahydropyrimido[1,2-a]benzimidazol-6-yl]pyrrolidin-2-one]
The melting point of the first is higher: 237 to 240 °C for the first, 215 to 216 °C for the second.

First: COc1nc(C)c(N2CCCn3c2nc2c(OC)ccc(C(OC(F)F)C(F)(F)F)c23)c(C)n1 (stereo not shown) [Example 526, 6-[1-(Difluoromethoxy)-2,2,2-trifluoroethyl]-9-methoxy-1-(2-methoxy-4,6-dimethylpyrimidin-5-yl)-1,2,3,4-tetrahydropyrimido[1,2-a]benzimidazole]
Second: Cc1nc(O)nc(C)c1N1CCCn2c1nc1c(Cl)ccc(C(OC(F)F)C(F)(F)F)c12 (stereo not shown) [Example 215, 5-{9-Chloro-6-[1-(difluoromethoxy)-2,2,2-trifluoroethyl]-3,4-dihydropyrimido[1,2-a]benzimidazol-1(2H)-yl}-4,6-dimethylpyrimidin-2-ol]
The melting point of the first is lower: 201 to 203 °C for the first, 208 to 210 °C for the second.

First: CCC(c1cccc2nc3n(c12)CCCN3c1ccc(Cl)cc1Cl)N(C)C (stereo not shown) [Example 203, 1-[1-(2,4-Dichlorophenyl)-1,2,3,4-tetrahydropyrimido[1,2-a]benzimidazol-6-yl]-N,N-dimethylpropan-1-amine]
Second: CCC(C)Nc1cccc2nc3n(c12)CCCN3c1ccc(Cl)cc1Cl (stereo not shown) [Example 207, 1-(2,4-Dichlorophenyl)-N-(1-methylpropyl)-1,2,3,4-tetrahydropyrimido[1,2-a]benzimidazol-6-amine]
The melting point of the first is lower: 144 to 145 °C for the first, 180 to 181 °C for the second.

First: Cc1nc(N2CCCCC2)ccc1N1CCCn2c1nc1c(Cl)ccc(C(OC(F)F)C(F)(F)F)c12 (stereo not shown) [Example 295, 9-Chloro-6-[1-(difluoromethoxy)-2,2,2-trifluoroethyl]-1-(2-methyl-6-piperidin-1-ylpyridin-3-yl)-1,2,3,4-tetrahydropyrimido[1,2-a]benzimidazole]
Second: Cc1nc(N2CCN(C)CC2)ccc1N1CCCn2c1nc1c(Cl)ccc(C(OC(F)F)C(F)(F)F)c12 (stereo not shown) [Example 297, 9-Chloro-6-[1-(difluoromethoxy)-2,2,2-trifluoroethyl]-1-[2-methyl-6-(4-methylpiperazin-1-yl)pyridin-3-yl]-1,2,3,4-tetrahydropyrimido[1,2-a]benzimidazole]
The melting point of the first is lower: 164 to 167 °C for the first, 193 to 195 °C for the second.

Compared with CCC(OC(C)=O)c1ccc(Cl)c2nc3n(c12)CCCN3c1ccc(OC)nc1C (single isomer, unassigned; (+)) [Example 267, (+)-1-[9-Chloro-1-(6-methoxy-2-methylpyridin-3-yl)-1,2,3,4-tetrahydropyrimido[1,2-a]benzimidazol-6-yl]propyl acetate], CCS(=O)(=O)Cc1ccc(Cl)c2nc3n(c12)CCCN3c1ccc(Cl)cc1Cl [Example 461, 9-Chloro-1-(2,4-dichlorophenyl)-6-[(ethylsulfonyl)methyl]-1,2,3,4-tetrahydropyrimido[1,2-a]benzimidazole] is higher in melting point: 110 to 114 °C for the first, 300 to 302 °C for the second.

Compared with CCC(CC)c1ccc(Cl)c2nc3n(c12)CCN3C(=O)c1c(C)cc(C)cc1C [Example 229, 8-Chloro-5-(1-ethylpropyl)-1-[(2,4,6-trimethylphenyl)carbonyl]-2,3-dihydro-1H-imidazo[1,2-a]benzimidazole], CCC(CC)c1ccc(Cl)c2nc3n(c12)CCN3C(=O)c1ccc(Cl)nc1 [Example 228, 8-Chloro-1-[(6-chloropyridin-3-yl)carbonyl]-5-(1-ethylpropyl)-2,3-dihydro-1H-imidazo[1,2-a]benzimidazole] is lower in melting point: 234 to 236 °C for the first, 205 to 207 °C for the second.

First: OC(c1ccc(Cl)c2nc3n(c12)CCN3c1ccc(Cl)cc1Cl)(C1CC1)C1CC1 [Example 430, [8-Chloro-1-(2,4-dichlorophenyl)-2,3-dihydro-1H-imidazo[1,2-a]benzimidazol-5-yl](dicyclopropyl)methanol]
Second: O=C(c1cccc2nc3n(c12)CCCN3c1ccc(Cl)cc1Cl)C1CC1 [Example 199, Cyclopropyl[1-(2,4-dichlorophenyl)-1,2,3,4-tetrahydropyrimido[1,2-a]benzimidazol-6-yl]methanone]
The melting point of the first is higher: 238 to 239 °C for the first, 189 to 190 °C for the second.

First: CCN(CC)c1cccc2nc3n(c12)CCCN(C)C3c1ccc(Cl)cc1Cl (stereo not shown) [Example 510, 1-(2,4-Dichlorophenyl)-N,N-diethyl-2-methyl-2,3,4,5-tetrahydro-1H-[1,4]diazepino[1,2-a]benzimidazol-7-amine]
Second: CCC(=O)c1cccc2nc3n(c12)CCCN3c1ccc(Cl)cc1Cl [Example 198, 1-[1-(2,4-Dichlorophenyl)-1,2,3,4-tetrahydropyrimido[1,2-a]benzimidazol-6-yl]propan-1-one]
The melting point of the first is lower: 132 to 133 °C for the first, 195 to 196 °C for the second.

Compared with CN(C)C(=O)c1cccc2nc3n(c12)CCCN3c1ccc(Cl)cc1Cl [Example 86, 1-(2,4-Dichlorophenyl)-N,N-dimethyl-1,2,3,4-tetrahydropyrimido[1,2-a]benzimidazole-6-carboxamide], O=C(c1cccc2nc3n(c12)CCCN3c1ccc(Cl)cc1Cl)N1CC(O)C1 [Example 90, 1-{[1-(2,4-Dichlorophenyl)-1,2,3,4-tetrahydropyrimido[1,2-a]benzimidazol-6-yl]carbonyl}azetidin-3-ol] is higher in melting point: 212 to 213 °C for the first, 257 to 258 °C for the second.

Source: patent US8785460B2, “Tricyclic compounds and use thereof” (Takeda Pharmaceutical Company Limited, priority 2008, dated 2014)
